Measurements as given in patent publication US20120010266A1, “TBC1D7 AS TUMOR MARKER AND THERAPEUTIC TARGET FOR CANCER” (Oncotherapy Science Inc.,, priority 2008, published 2012).

Experiments:
[1] = tested on: p-rpS6 (Ser235/236), downstream target of mTORC1; assay: Effect of TSC1 knockdown on mTORC1 pathway in LC319 cells (phosphorylation of rpS6); type: cell-based, human; details: LC319 cells treated with siRNA against TSC1
[2] = tested on: TSC1; assay: si-TSC1 treatment of LC319 cells: TSC1 and TBC1D7 transcript and protein levels (semiquantitative RT-PCR, western blot); type: cell-based, human; details: for TBC1D7 protein level: LC319 cells treated with siRNA against TSC1, western blot
Description: Total RNA was extracted from cultured cells and clinical tissues using Trizol reagent (Life Technologies, Inc.) according to the manufacturer's protocol. Extracted RNAs were treated with DNase I (Nippon Gene) and reversely-transcribed using oligo (dT) primer and SuperScript II reverse transcriptase (Invitrogen). Semiquantitative RT-PCR experiments were carried out with the following synthesized TBC1D7-specific primers or with beta-actin (ACTB)-specific primers as an internal control: TBC1D7, 5′-[…]-3′ (SEQ ID NO.: 5) or 5′-[…]-3′ (SEQ ID NO.:15) and 5′-[…]-3′ (SEQ ID NO.: 6); TSC1, 5′-[…]-3′ (SEQ ID NO.:16) and 5′-[…]-3′ (SEQ ID NO.:17); ACTB, 5′-[…]-3′ (SEQ ID NO.: 7) and 5′-[…]-3′ (SEQ ID NO.: 8). PCR reactions were optimized for the number of cycles to ensure product intensity within the logarithmic phase of amplification.
Cells were lysed in lysis buffer; 50 mM Tris-HCl (pH 8.0), 150 mM NaCl, 0.5% NP-40, 0.5% deoxycholate-Na, 0.1% SDS, plus protease inhibitor (Protease Inhibitor Cocktail Set III; Calbiochem). It was used an ECL western-blotting analysis system (GE Healthcare Bio-sciences), as previously described (Takahashi K. et al. Cancer Res 2006; 66:9408-19).
Small interfering RNA (siRNA) duplexes (100 nM) were transfected into a NSCLC cell line, A549 and LC319, using 24 microL of Lipofectamine 2000 (Invitrogen) following the manufacturer's protocol. The transfected cells were cultured for 7 days, and the number of colonies was counted by Giemsa staining, and viability of cells was evaluated by 3-(4,5-dimethylthiazol-2-yl)-2,5-diphenyltetrazolium bromide (MTT) assay (cell counting kit-8 solution; Dojindo Laboratories), at 7 days after transfection. To confirm suppression of TBC1D7 and TSC1 expression, western blotting using antibodies to TBC1D7 and TSC1 as well as semiquantitative RT-PCR with synthesized primers specific for TBC1D7 and TSC1 were carried out as described above. SiRNA sequences against human TBC1D7 and TSC1 were as follows, si-TBC1D7#3: GAACAGUGCAGAGAAGAUA (SEQ ID NO.:18), si-TBC1D7#4: GAUAAAGUUGUGAGUGGAU (SEQ ID NO.:19), and si-TSC1: CGACACGGCUGAUAACUGA (SEQ ID NO.:20). The present inventors also designed siRNA oligonucleotides against control-1 (LUC: luciferase gene from Photinus pyralis), 5′-CGUACGCGGAAUACUUCGA-3′ (SEQ ID NO.:21) and control-2 (EGFP: enhanced green fluorescent protein (GFP) gene, a mutant of Aequorea victoria GFP), 5′-GAAGCAGCACGACUUCUUC-3′ (SEQ ID NO.:22).

[3] = biological target: T1, flag-TBC1D7 (exogenous TBC1D7 transiently expressed in COS-7 cells) (human, UniProt Q9P0N9 1-293); assay: co-immunoprecipitation from COS-7 cells expressing flag-TBC1D7 and Myc-RAB17 (FIG. 4B)
T1 construct: The only full-length flag vector described is pCAGGSn3FC, with 3xflag at the C-terminus, so it may be the same construct as m2; The order of the parts is therefore uncertain
T1 sequence: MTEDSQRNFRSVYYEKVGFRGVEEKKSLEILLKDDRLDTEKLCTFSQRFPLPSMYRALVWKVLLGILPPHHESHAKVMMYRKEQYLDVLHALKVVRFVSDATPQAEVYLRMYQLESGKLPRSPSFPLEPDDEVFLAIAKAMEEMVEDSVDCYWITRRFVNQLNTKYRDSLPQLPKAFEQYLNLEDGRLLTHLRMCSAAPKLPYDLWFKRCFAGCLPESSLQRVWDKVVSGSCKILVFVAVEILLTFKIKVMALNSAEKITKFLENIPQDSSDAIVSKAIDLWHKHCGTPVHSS
Description: FIG. 4 depicts interaction of TBC1D7 with binding proteins. A, Interaction of exogenous TBC1D7 with endogenous 14-3-3 zeta protein in COS-7 cells. Immunoprecipitations were carried out using anti-flag M2 agarose and extracts from COS-7 cells transiently expressing flag-TBC1D7. Immunoprecipitates were subjected to western-blot analysis to detect endogenous 14-3-3. B, Interaction of exogenous TBC1D7 with exogenous RAB 17 protein in COS-7 cells. Immunoprecipitations were carried out using anti-flag M2 agarose and extracts from COS-7 cells transiently expressing flag-TBC1D7 and/or Myc-RAB17. Immunoprecipitates were subjected to western-blot analysis to detect exogenous RAB 17. IB, immunoblotting; IP, immunoprecipitation. C, Expression of TSC1 and TBC1D7 in lung cancer cells. […] Left panels, The levels of TSC1 and TBC1D7 transcripts and proteins, detected by semiquantitative RT-PCR analysis and western-blot analysis in LC319 cells transfected with si-TSC1. Right panels, The levels of TSC1 and TBC1D7 transcripts and proteins, detected by semiquantitative RT-PCR analysis and western-blot analysis in LC319 cells transfected with TSC1 expression vector. F, The levels of endogenous TSC1 and TBC1D7 proteins, detected by western blot analysis in LC319 cells that were initially transfected with si-TSC1, and were subsequently transfected with TSC1 expression vector 24 hours after the siRNA transfection. […]

Question: “si-TSC1: siRNA sequence against human TSC1: CGACACGGCUGAUAACUGA (SEQ ID NO: 20) (listed as RNA, chemistry not given here)” was tested. Which “levels of p-rpS6 (Ser235/236) protein” value [1] did it give?
Answer: Its value is “not changed”.

Question: And the “transcription level of TBC1D7” value ([2]; LC319 cells treated with si-TSC1, semiquantitative RT-PCR)?
Answer: Its value is “unchanged”.

Question: What about the TBC1D7 protein level [2] of the same molecule?
Answer: The TBC1D7 protein level was “decreased”.

Question: And the TBC1D7 protein level ([2]; listed as siRNA against TSC1)?
Answer: Its TBC1D7 protein level is “Reduced levels”.

Question: What about the “expression of the endogenous TSC1” value ([2]; LC319 cells, in comparison to control siRNA (si-EGFP)) of the same molecule?
Answer: The value was “suppressed”.

B1: Myc-RAB17 (pcDNA3.1 Myc-His RAB17), exogenous RAB17 expressed in COS-7 cells (other)
chain: MAQAHRTPQPRAAPSQPRVFKLVLLGSGSVGKSSLALRYVKNDFKSILPTVGCAFFTKVVDVGATSLKLEIWDTAGQEKYHSVCHLYFRGANAALLVYDITRKDSFLKAQQWLKDLEEELHPGEVLVMLVGNKTDLSQEREVTFQEGKEFADSQKLLFMETSAKLNHQVSEVFNTVAQELLQRSDEEGQALRGDAAVALNKGPARQAKCCAH
notes: not shown: Myc-His tag of the pcDNA3.1 Myc-His vector
Question: Does B1 bind [3]?
Answer: Result: binds
